Assay results as given in patent US8859617B2, “Use of furan alkyl for preparing an antidiabetic drug” (Laboratoires Expanscience, priority 2004, dated 2014).

Columns and labels:
[1] = tested on: mice on HF/HS diet; assay: Weight of mice on HF/HS diet; assay type: in vivo; details: curative; TZD added to food
Method: (§1) We used adult mice (aged 6 weeks) of masculine gender fattened on a high fat/high sucrose diet (HF/HS). Feeding with the HF/HS diet began on mice aged 6 weeks and continued throughout the period of the study. The study was conducted along 2 axes: • prevention: the product was administered as soon as feeding began with the HF/HS diet; • management (curative): the product was administered 12 weeks after the start of the HF/HS diet. Total treatment time (preventive and curative): 23 weeks.
(§2) Each experimental group comprised 10 mice.

[2] = tested on: mice on HF/HS diet; assay: Blood parameters: plasma lipids (cholesterol, LDL, HDL, TG, FFA); assay type: in vivo
Method: as §1, §2
(§3) Subsequently the following were analysed: lipoprotein profile (by size exclusion chromatography); apolipoportein Al; lipid composition of the liver (liver triglycerides, cholesterol and free fatty acids); histological analysis of the liver and adipose tissue; staining of accumulated lipids in the liver.
The different cholesterol blood levels and different fractions were analysed using a HPLC method.

[3] = tested on: mice on HF/HS diet; assay: Plasma lipoprotein profile (size exclusion chromatography); assay type: in vivo; details: TZD
Method: as §1, §2, §3

[4] = tested on: mice on HF/HS diet; assay: Blood glucose and insulin analysis; assay type: in vivo
Method: as §1, §2, §3

[5] = tested on: mice on HF/HS diet; assay: Intraperitoneal Glucose Tolerance Test (IPGTT); assay type: in vivo; details: TZD; for Glucose resistance (IPGTT): preventive
Excerpt: Each study started at D-7 (i.e. 7 days before the start of the HF/HS diet) with an analysis of glucose tolerance using either an intra-peritoneal glucose tolerance test for some of the animals (n=5) or a sensitivity test to intravenous insulin for the other animals (n=5). At D=0 blood samples were taken to obtain basal condition values for all lipid and lipoprotein parameters, then the mice were randomly distributed irrespective of weight. The weight of each mouse and the quantity of food absorbed were measured twice a week. At weeks 3, 8, 15 and 23 the blood was collected after overnight fasting. At weeks 12 and 18 some of the animals (n=5) were subjected to an intra-peritoneal glucose tolerance test, the others (n=5) to a sensitivity test to intravenous insulin.
In addition this prevailing tolerance is often accompanied by insulin resistance. • Protocol: • fasted mice, • measurement of glycaemia at TO, • intra-peritoneal injection of glucose, • measurement of glycaemia 15, 30, 45, 60, 90, 120 and 180 min. after injection, • kinetics performed weeks 1, 12 and 18 in the preventive group and week 18 in the curative group.

[6] = tested on: mice on HF/HS diet; assay: Intra Peritoneal Insulin Sensitive Test (IPIST); assay type: in vivo; details: preventive
Excerpt: The HF/HS diet induces a strong resistance to glucose. […] The test used is the Intra Peritoneal Insulin Sensitive Test—IPIST.

[7] = tested on: mice on HF/HS diet; assay: Hepatic metabolism: transaminases and alkaline phosphatase (liver toxicity); assay type: in vivo; details: plasma; considered very moderate, does not appear to reflect liver toxicity
[8] = tested on: ACO (target PPARα); assay: mRNA analysis in the liver (Q-RT-PCR): ACO; assay type: in vivo, mice; details: TZD
Method: (§4) the liver, the mRNA expressions of 8 genes were determined in 5 mice of each group using real-time Q-RT-PCR analysis.

[9] = tested on: PEPCK (target PPARγ); assay: mRNA analysis in the liver (Q-RT-PCR): PEPCK; assay type: in vivo, mice; details: TZD
Method: as §4

[10] = tested on: CYP7A1; assay: mRNA analysis in the liver (Q-RT-PCR): CYP7A1; assay type: in vivo, mice; details: TZD
Method: as §4

[11] = tested on: ME, FAS, ACC (fatty acid synthesis); assay: mRNA analysis in the liver (Q-RT-PCR): ME, FAS, ACC; assay type: in vivo, mice; details: TZD
Method: as §4

[12] = tested on: PGC-1 (mitochondria biogenesis); assay: mRNA analysis in muscles and BAT: PGC-1; assay type: in vivo, mice; details: muscle; TZD
Method: In the brown adipose tissue (BAT) and in the muscles, the mRNA expression of 3 genes was determined in 5 mice of each group by real-time Q-RTR-PCR analysis.

[13] = curative, TZD 10 mg/kg/day, (3 W***)
[14] = curative, TZD, after 3 and 11 weeks
[15] = preventive, TZD 10 mg/kg/day, (3 W***)
[16] = preventive, TZD, after 3, 8, 15 and 23 weeks

Q: How did the “Weight loss of overweight mice” value [1] turn out when CN(CCOc1ccc(CC2SC(=O)NC2=O)cc1)c1ccccn1 (stereo not shown) [TZD, Rosiglitazone] was run?
A: The value was “did not cause the overweight mice to lose weight”.

Q: And the Triglyceride level ([2]; curative, TZD)?
A: The Triglyceride level was “No change”.

Q: What about the LDL ([2]; curative, TZD 10 mg/kg/day) of the same compound?
A: The LDL was “↓”.

Q: And the HDL [2, 13]?
A: Its HDL is “↓↓”.

Q: What about the Total cholesterol [2, 13] of the same compound?
A: The Total cholesterol was “↓↓”.

Q: And the HDL cholesterol level [2, 14]?
A: The HDL cholesterol level was “reduction”.

Q: And the LDL cholesterol level [2, 14]?
A: The LDL cholesterol level was “reduction”.

Q: What about the Total cholesterol [2, 14] of the same compound?
A: The Total cholesterol was “reduction”.

Q: And the LDL cholesterol level ([2]; preventive, TZD)?
A: Its LDL cholesterol level is “downward trend”.

Q: What about the “TG (triglycerides)” value ([2]; preventive, TZD 10 mg/kg/day) of the same compound?
A: Its value is “↓”.

Q: What about the HDL [2, 15] of the same compound?
A: Its HDL is “↓↓”.

Q: What about the Total cholesterol [2, 15] of the same compound?
A: Its Total cholesterol is “↓↓”.

Q: And the HDL cholesterol level [2, 16]?
A: The HDL cholesterol level was “significant reduction”.

Q: What about the Total cholesterol level [2, 16] of the same compound?
A: The Total cholesterol level was “significant reduction”.

Q: And the “Plasma levels of triglycerides” value ([2]; preventive, TZD, after 8 weeks, no additional reduction after 15 and 23 weeks)?
A: Its value is “significantly reduced”.

Q: And the “HDL and VLDL cholesterol fractions” value ([3]; curative, after 3 weeks)?
A: The value was “reduction”.

Q: And the “HDL, LDL and VLDL cholesterol fractions” value ([3]; preventive, weeks 8 and 15)?
A: The value was “reduction”.

Q: And the GLUCOSE ([4]; curative, TZD 10 mg/kg/day, (3 W**))?
A: The GLUCOSE was “↓↓”.

Q: What about the Glucose levels [4, 14] of the same compound?
A: The Glucose levels was “dropped considerably”.

Q: What about the ““Constitutive” hyperglycaemia” value ([4]; preventive, TZD) of the same compound?
A: Its value is “return to normal”.

Q: And the GLUCOSE ([4]; preventive, TZD 10 mg/kg/day)?
A: The GLUCOSE was “↓”.

Q: What about the INSULIN ([4]; preventive, TZD 10 mg/kg/day) of the same compound?
A: Its INSULIN is “↓”.

Q: And the Glucose level reduction ([4]; preventive, TZD, weeks 8, 15 and 23)?
A: The Glucose level reduction was “no longer observed”.

Q: And the “Already established, diet-induced glucose resistance” value ([5]; curative)?
A: Its value is “does not act”.

Q: What about the “Glucose resistance (IPGTT)” value ([5]; at 12 weeks) of the same compound?
A: The value was “AUC value intermediate between HF/HS and normal diet”.

Q: What about the “Glucose resistance (IPGTT)” value ([5]; at 18 weeks, return to normal kinetics) of the same compound?
A: The value was “completely cancels out the effects of the HF/HS diet”.

Q: What about the IPIST ([6]; TZD 10 mg/kg/day, (3 W***)) of the same compound?
A: Its IPIST is “↓↓”.

Q: What about the “Insulin sensitivity (IPIST)” value ([6]; TZD, (15 min)) of the same compound?
A: The value was “restores sensitivity to insulin”.

Q: And the “Alkaline phosphatase (ALP)” value [7]?
A: Its value is “increase”.

Q: And the “ACO (target PPARα) mRNA” value [8]?
A: The value was “↑”.

Q: What about the “PEPCK (target PPARγ) mRNA” value [9] of the same compound?
A: Its value is “↑”.

Q: And the “CYP7A1 (conversion oxysterol into biliary acids) mRNA” value [10]?
A: The value was “↑↑”.

Q: And the “ME, FAS, ACC (fatty acid synthesis) mRNA” value [11]?
A: Its value is “↑↑”.

Q: What about the “PGC-1 (mitochondria biogenesis) mRNA” value [12] of the same compound?
A: The value was “↑ (muscle)”.
